Assay results taken from ChEMBL document CHEMBL4024782, “Structure-Guided Synthesis and Mechanistic Studies Reveal Sweetspots on Naphthyl Salicyl Hydrazone Scaffold as Non-Nucleosidic Competitive, Reversible Inhibitors of Human Ribonucleotide Reductase” (J Med Chem, 2018).
Values belong to the molecule of their own block, whether it stands above or below them. Activity calls are given as the source filed them. The calls are words filed in the database; no cut-off is given here.

Key:
[1] = molecular target: T1, Ribonucleoside-diphosphate reductase large subunit (Homo sapiens, UniProt P23921); test: Inhibition of human RRM1 expressed in Escherichia coli BL21-codon plus(DE3)-RIL using [14C]-ADP as substrate after 3 mins by liquid scintillation counting method
T1 sequence (P23921 whole entry): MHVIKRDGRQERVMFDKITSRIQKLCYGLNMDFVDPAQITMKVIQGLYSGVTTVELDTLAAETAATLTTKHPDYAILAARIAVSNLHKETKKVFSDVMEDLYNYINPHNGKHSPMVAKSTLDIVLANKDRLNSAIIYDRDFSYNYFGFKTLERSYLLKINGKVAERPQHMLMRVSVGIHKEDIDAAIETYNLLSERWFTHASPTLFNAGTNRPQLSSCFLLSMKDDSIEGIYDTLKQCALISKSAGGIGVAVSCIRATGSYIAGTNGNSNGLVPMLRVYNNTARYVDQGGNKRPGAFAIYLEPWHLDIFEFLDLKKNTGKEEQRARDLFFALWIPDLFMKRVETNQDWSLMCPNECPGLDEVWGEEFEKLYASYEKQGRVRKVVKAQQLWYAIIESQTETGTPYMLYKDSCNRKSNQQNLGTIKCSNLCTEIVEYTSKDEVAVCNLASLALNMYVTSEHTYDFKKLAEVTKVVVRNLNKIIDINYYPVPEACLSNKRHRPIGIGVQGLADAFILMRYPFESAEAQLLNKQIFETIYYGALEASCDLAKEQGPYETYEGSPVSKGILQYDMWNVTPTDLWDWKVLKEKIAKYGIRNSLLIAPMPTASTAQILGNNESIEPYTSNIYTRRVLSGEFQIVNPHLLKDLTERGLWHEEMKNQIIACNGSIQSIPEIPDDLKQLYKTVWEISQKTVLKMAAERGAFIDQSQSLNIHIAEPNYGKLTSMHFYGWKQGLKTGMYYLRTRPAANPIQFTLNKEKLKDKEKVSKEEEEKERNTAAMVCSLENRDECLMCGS

[2] = test system: MDA-MB-231; test: cells; settings: Homo sapiens, MDA-MB-231, 120 h
[3] = molecular target: T2, Ribonucleoside-diphosphate reductase subunit M2 (Homo sapiens, UniProt P31350); test: Inhibition of human RRM2 expressed in Escherichia coli BL21-codon plus(DE3) using [14C]-ADP as substrate after 3 mins by liquid scintillation counting method
T2 sequence (P31350 whole entry): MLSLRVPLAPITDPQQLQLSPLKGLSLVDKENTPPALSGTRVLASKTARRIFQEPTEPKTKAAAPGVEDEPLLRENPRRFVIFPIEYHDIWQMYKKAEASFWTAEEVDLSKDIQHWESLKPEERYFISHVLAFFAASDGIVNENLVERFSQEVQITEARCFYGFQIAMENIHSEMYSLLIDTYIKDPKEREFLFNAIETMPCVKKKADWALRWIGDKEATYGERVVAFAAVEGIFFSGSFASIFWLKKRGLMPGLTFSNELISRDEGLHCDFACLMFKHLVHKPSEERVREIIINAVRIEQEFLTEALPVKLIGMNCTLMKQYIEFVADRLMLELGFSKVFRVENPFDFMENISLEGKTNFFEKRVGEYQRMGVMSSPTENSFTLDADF

[4] = test system: MDA-MB-231; test: cells; settings: Homo sapiens, MDA-MB-231, 120 h; remark: listed apart in the source
[5] = Metal chelating activity in pH 7 ammonium acetate buffer assessed as Mg2+-compound complex formation at compound to metal ratio of 1:1 to 1:10 under anaerobic condition by UV spectroscopic method; type: functional
[6] = test system: MDA-MB-231; test: cells; settings: Homo sapiens, MDA-MB-231, 120 h; remark: listed apart in the source
[7] = Metal chelating activity in pH 7 ammonium acetate buffer assessed as Fe2+-compound complex formation at compound to metal ratio of 1:4 to 1:50 under anaerobic condition by UV spectroscopic method; type: functional
[8] = Metal chelating activity in pH 7 ammonium acetate buffer assessed as Fe3+-compound complex formation at compound to metal ratio of 1:1 to 1:50 under anaerobic condition by UV spectroscopic method; type: functional
[9] = test system: MDA-MB-231; test: cells; settings: Homo sapiens, MDA-MB-231, 120 h; remark: listed apart in the source
[10] = test system: MDA-MB-231; test: cells; settings: Homo sapiens, MDA-MB-231, 72 h

- IC50 [1]: 687 µM
Structure (SMILES): COc1cc(/C=N/N=C/c2c(O)ccc3ccccc23)ccc1O

- IC50 [2]: 0.347 µM
- IC50 [3]: 123 µM
- IC50 [4]: 1.94 µM
- IC50 [6]: 1.49 µM
- IC50 [9]: 1.43 µM
Structure (SMILES): O=C(N/N=C/c1c(O)ccc2ccccc12)c1ccccc1O
- Activity [5]: inactive
- Activity [7]: Active
- Activity [8]: inactive

- IC50 [10]: 0.03 to 0.1 µM
Structure (SMILES): Nc1ccn([C@@H]2O[C@H](CO)[C@@H](O)C2(F)F)c(=O)n1 [GEMCITABINE]

Further lines, the molecule ahead of its results:

Structure (SMILES): O=C(N/N=C/c1c(O)ccc2ccccc12)OCc1ccccc1
- IC50 [1]: 120 µM

Structure (SMILES): NC(=S)N/N=C/c1ncccc1N [TRIAPINE]
- IC50 [3]: 0.185 µM

Structure (SMILES): O=S(=O)(Cc1ccccc1)N/N=C/c1c(O)ccc2ccccc12
- IC50 [1]: 131 µM
